Assay results reported in US20140200265A1, “USAGE OF 1,3,5,7-TETRAHYDROXY-8-ISOPRENYLXANTHONE FOR TREATING INFLAMMATION” (Hong Kong Baptist University, priority 2013, published 2014).
≈ marks a conversion by molar mass, not a printed value. Read-outs that look alike come from different tables or passages of the source.

Legend:
[1] = tested on: NO production in LPS and IFN-γ stimulated RAW264.7 cells; assay: Assay for NO accumulation in stimulated macrophages (Griess reaction); type: cell-based; settings: Mus musculus, 24 hours; for IC50: 10 U/ml IFN-γ and 100 ng/ml LPS
Protocol: RAW264.7 were maintained in RPMI 1640 medium supplemented with 10% FBS at 37° C. in a humidified 5% CO2 atmosphere. Cells were plated in a 96-well plate (5×10^3 cells/well) and allowed to attach overnight. The cells were then stimulated with 10 U/ml of IFN-γ and 100 ng/ml of LPS for 24 hours in the presence or absence of tested compound with final concentration of 50, 25, 12.5, 6.25, 3.125 μg/mL, and Indometacin as positive drug.
iNOS function was analyzed with Griess reaction and was applied for measurement of nitrite concentration in the culture supernatant. Briefly, 100 μl/well of sample was incubated with equal volume of Griess solution at room temperature for 10 min. The absorbance was evaluated at 540 nm using a calibration curve with a sodium nitrite standard. Percent inhibition was expressed as [1-(NO level of sample/NO level of vehicle treated-control)]×100 (Table 1).

[2] = tested on: miR-155 expression in stimulated RAW264.7 cells; assay: Assay for microRNA155 expression in stimulated macrophages (qRT-PCR); type: cell-based; settings: RAW264.7 cells, 1, 2, 4 μg/mL, 24 hours, FIG. 2
Protocol: RAW264.7 cells were pretreated with tested sample (1,2,4 μg/mL,) for 1 hour and then stimulated for 24 hours. The cells were harvested. Total RNA was extracted and RNA concentrations were determined. Quantitative RT-PCR analyses on miRNAs were performed using TaqMan miR NA assays (Applied Biosystems, USA). 50 ng of RNA per reaction was subjected for RT reaction. RT reaction was carried out using the following conditions: 16° C. for 30 minutes, 42° C. for 30 minutes, and 85° C. for 5 minutes. Expression levels of the miRNAs were determined by qRT-PCR using TaqMan Expression Assays (Applied Biosystems, USA). RNU6 endogenous control was used for normalization, and expression levels were presented as ΔCt with standard deviation (FIG. 2).
As miR-155 plays an important role in the innate immune response or inflammation, the effect of 1,3,5,7-tetrahydroxy-8-isoprenylxanthone on the expression of miR-155 by qRT-PCR was evaluated. In FIG. 2, the cells were stimulated with 100 ng/ml of LPS and 10 U/ml of IFN-γ only or LPS plus different concentrations (1,2,4 μg/mL) of sample for 24 hours. Total RNA was isolated and the expression of miRNA-155 was determined by qRT-PCR. […] RNU6B was used here as an endogenous control. The data represent the mean±SD of triplicate experiments. **p<0.01 compared with the LPS plus IFN-γ.

[3] = tested on: Candida albicans secreted aspartic proteases (SAP); settings: Planta Med. 2002; 68(1):49-54; cited from earlier work

| Compound | inhibition at 1 µg/mL ([1]; 1 μg/mL, IFN-γ and LPS, read-out: The inhibitory effect on NO accumulation (percent inhibition)) [%] | IC50 ([1]; read-out: The inhibitory effect on NO accumulation, IC50) [µM] | IC50 ([1]; read-out: The inhibitory effect on NO accumulation, IC50(μg/mL)) [µg/mL] | Effect on LPS plus IFN-γ-induced miR-155 expression [2] | IC50 against Candida albicans secreted aspartic proteases (SAP) [3] [mg/L] |
| --- | --- | --- | --- | --- | --- |
| COc1ccc2c(c1)c(CC(=O)O)c(C)n2C(=O)c1ccc(Cl)cc1 [Indometacin, reference compound] | 46.5 |  |  |  |  |
| CC(C)=CCc1c(O)cc(O)c2oc3cc(O)cc(O)c3c(=O)c12 [1,3,5,7-tetrahydroxy-8-isoprenylxanthone] |  | 5.06 | 1.66 | reduced LPS plus IFN-γ-induced miR-155 expression in a dose-dependent manner | 25 (≈ 76.1 µM) |
